Data: patent US9546367B2, “siRNA compositions and methods for inhibiting gene expression in tumor initiating cells of breast cancer” (priority 2011, dated 2017)

Legend:
SUM159 xenografts = experiment: short-term in vivo siRNA (multistage particle) treatment, SUM159 xenograft; parameters: species or system SCID-Beige mice; details: for tumor volume: SUM159; for secondary MSFE: SUM159 xenograft cells, tumors collected after two weeks; for Aldefluor levels: SUM159 xenografts, reduction not statistically significant
Description: FIG. 9A, FIG. 9B, FIG. 9C, and FIG. 9D show short-term, in vivo treatment in siRNA SUM159 xenografts. Triple-negative breast cancer cell line SUM159 was injected into the mammary fat pad of SCID beige mice (n=9). These tumors were randomized into six groups: 1) vehicle+scrambled siRNA (15 μg, i.v.); 2) vehicle+RPL39 siRNA 15 μg (i.v.); 3) vehicle+MLF2 siRNA (15 μg (i.v.); 4) docetaxel (20 mg/kg, i.p.)+scrambled siRNA 15 μg (i.v.): 5) docetaxel (20 mg/kg, i.p.)+RPL39 siRNA 15 ltg (i.v.), and 6) docetaxel (20 mg/kg, i.p.)+MLF2 siRNA 15 μg (i.v.). […] Data were analyzed by one-way ANOVA, and plotted as mean±SEM for n=9 replicates; *p<0.05;
The effect of MLF2 and RPL39 using siRNA packaged in multistage nanoparticles in two different triple negative models were studied. SUM159 and a patient-derived human cancer xenograft (BCM2665) from a primary human breast cancer transplanted in SCID-Beige mice, the test group had 54 mice per xenograft line, and 9 mice per treatment arm. When tumor sizes reached 150 to 300 mm^3, mice were divided into six groups: (1) vehicle-treated, (2) chemotherapy on day 0 with one dose of docetaxel 20 mg/kg by intraperitoneal (i.p.) injection. (3) siRNA against MLF2 packaged in nanoparticles (single injection intravenous (i.v.) on Day 1), (4) combination treatment with docetaxel (20 mg/kg i.p. on Day 1) and siRNA against MLF2 (single injection i.v. on Day 1), (5) siRNA against RPL39 packaged in nanoparticles (single injection i.v. on Day 1), and (6) combination treatment with docetaxel (20 mg/kg i.p. on Day 1) and siRNA against inhibitor […] (single injection iv. on Day 1). The same dose (15 μg siRNA) was used in all experiments. Animals were sacrificed on Day 14. The tumors were harvested and analyzed for downstream effects on BCSC self-renewal using FACS analysis, and MSFE.
The fraction of BCSCs in the xenograft tumors from the six treatment groups were processed by mincing and digesting the tumors using collagenase type III, for 3 hrs at 37° C. in order to dissociate the tumors into single cells. Changes in CD44+/CD24/Lin− and Aldefluor® were analyzed as described previously (Li et al., 2008). Briefly, cells were stained with primary antibodies antiCD44 labeled APC (dilution 1:10. BD Biosciences), anti-CD24-labeled FITC (dilution 1:10, BD Biosciences), and additionally with H2KD-labeled PE to eliminate all mouse, lineage-positive cells. The cells were incubated in HBSS (Hanks Balanced Salt Solution, GIBCO) for 15 min on ice with 2% FBS for the antibodies and 45 min for Aldefluor® reagent. Following incubation, cells were washed once with HBSS and re-suspended in HBSS supplemented with 2% FBS. […] (PI) was added to the cells for live/dead gating prior to FACS analysis.
Mammosphere formation efficiency, the in vitro assay for stem cell self-renewal, was performed as described previously (Dontu et al., 2003; Dontu et al., 2005; Li et al., 2008). Single cells were plated in ultra-low attachment plates (Corning, Acton, Mass., USA) at the density 40,000 viable cells/mL for BCM2665 in primary culture, and at the density 10,000 viable cells/mL in secondary culture. For mammosphere culture, cells were grown in serum-free mammary epithelial basal medium (MEGM) (Lonza, Inc.) supplemented with B27 (Invitrogen), 20 ng/mL EGF (BD Biosciences), and 1% heparin (Sigma Chemical Co.) in a humidified incubator ([…]: 95% air, 37° C. for 14 days, as previously described (Li et al., 2008).

MDAMB231 = experiment: in vitro MSFE with packaged siRNA; type: cell-based, human; details: Day 8, p<0.05
Description: FIG. 7A, FIG. 7B, and FIG. 7C show confirmation of BCSC target genes and comparison of changes in mammosphere formation efficiency. […] Data analyzed by one-way ANOVA and plotted as mean±SEM for n=6 replicates; *p<0.05;
The siRNA sequences of two candidate genes RPL39 and MLF2 were packaged in nanoliposomes and the effects on MSFE determined in vitro, as described above, using packaged siRNA instead of lentiviral shRNA.

[1] = system: MDAMB231 tumor xenografts; experiment: long-term in vivo siRNA treatment of MDAMB231 xenografts; parameters: species or system SCID-Beige mice; details: p<0.05; for median survival: siRNA with chemotherapy (docetaxel) over chemotherapy alone
Description: FIG. 8A, FIG. 8B, and […] show long-term, in vivo treatment in siRNA MDAMB231 xenografts. Triple-negative breast cancer cell line, MDAMB231 was injected into the mammary fat pad of SCID beige mice (n=9). These tumors were randomized into six groups: vehicle+scrambled siRNA, vehicle+RPL39 siRNA, vehicle 4 MLF2 siRNA, docetaxel (20 mg/kg, i.p.)+scrambled siRNA, docetaxel (20 mg/kg, i.p.)+RPL39 siRNA, docetaxel (20 mg/kg, i.p.)+MLF2 siRNA. Tumor volume was measured twice weekly and reported as tumor volume fold-change over time.
Long-term in vivo treatment efficacy studies: three million cells MDAMB231 cancer cells, which grow primary as well as metastatic tumors, were injected in the mammary fat pad of SCID-Beige mice and allowed them to grow to 150-300 mm^3 tumors, and randomized them into 6 groups: (1) vehicle+scrambled siRNA. (2) vehicle+MLF2 siRNA. (3) vehicle+RPL39 siRNA, (4) docetaxel (20 mg/kg)+scrambled siRNA, (5) docetaxel (20 mg/kg)+MLF2 siRNA, and (6) docetaxel (20 mg/kg)+RPL39 siRNA. Each injection was loaded with 15 μg of siRNA per animal. These groups received three cycles of treatment every 14 days apart starting at Day 0, and cationic liposome packaged siRNA was administered through tail vein injection thrice weekly.
In the shRNA knockdown experiments, the mean and standard deviation of all measurements from every replicated experiment of each plate were estimated. The Z-score was calculated by subtracting […] and dividing the difference by standard deviation. […] Different treatment groups were compared by one-way ANOVA to determine statistical significance in the confirmatory shRNA, nanoliposome siRNA, and tumor volume fold-change experiments. This was followed by Tukey analysis for a pairwise comparison of the different treatment groups. In the tumor recurrence studies, events were defined as first appearance of tumor >50 mm^3 after completion of treatment. Time to recurrence was derived by the Kaplan-Meier method, with differences compared using the generalized Mann-Whitney-Wilcoxon rank-sum test.

[2] = siRNA alone (15 μg i.v., MSV) vs vehicle
[3] = siRNA+chemotherapy vs standard-dose docetaxel (20 mg/kg)
[4] = siRNA alone (15 μg per injection) vs vehicle treated groups
[5] = siRNA in combination with docetaxel (20 mg/kg)

Substance | tumor volume (SUM159 xenografts; [2]) | tumor volume (SUM159 xenografts; [3]) | secondary MSFE (SUM159 xenografts) | Aldefluor levels (SUM159 xenografts) | secondary MSFE (MDAMB231) | tumor volume [1, 4] | tumor volume [1, 5] | median survival [1]
RPL39 siRNA: siRNA against ribosomal protein L39-like; sense SEQ ID NO: 15 ACGATTCCTGGCCAAGAAACAA, antisense SEQ ID NO: 31 TTGTTTCTTGGCCAGGAATCGC (listed as DNA, chemistry not fully specified) | Significant reduction | Similarly, observations were obtained | Significant decrease | reduction | significantly reduced | Significant reduction | significantly reduced | significantly prolonged
MLF2 siRNA: siRNA against myeloid leukemia factor 2; sense SEQ ID NO: 3 CCCTGATGGATCCCTTTGCTAT, antisense SEQ ID NO: 19 ATAGCAAAGGGATCCATCAGGA (packaged in nanoliposomes, chemistry not given here, further chemistry not given here) | Significant reduction | Similarly, observations were obtained | Significant decrease | reduction | significantly reduced | Significant reduction | significantly reduced | significantly prolonged
